Patent US20260250320A1, “LIPIDATED PEPTIDE INHIBITORS OF INTERLEUKIN-23 RECEPTOR” (Janssen Pharmaceutica NV, priority 2023, published 2026)
*1 amine or outer side, *2 acyl side, *3 side chain or, on linkers, in order; H or OH if unused. Where a SMILES comes first, the peptide text is derived from it. Bridges are numbered along the chain shown (N, C = ends). Side-chain parts run from the residue outwards. [ ]: non-standard residue; d: D form. The star is where a group is joined. X23 = CN(CCOCCOCC(=O)N(C)CCOCCOCC(=O)*)C(=O)CC[C@H](C(=O)O)N(C)C(=O)CCCCCCCCCCCCCCCCC(=O)O; X11 = CN(CC(N)=O)C(=O)[C@H](Cc1cccnc1)NC(O)[C@H](CC(N)=O)N*; X21 = NC(=O)C[C@H](N[*:1])C(=O)C[C@@H](Cc1cccnc1)C(=O)[*:2]; Me3N+(CH2)2O(CH2)2O(CH2)2CO = C[N+](C)(C)CCOCCOCCC(=O)*; Trp(7-Me) = Cc1cccc2c(C[C@H](N)C(=O)O)c[nH]c12; Hexanoyl(6-NMe3+) = C[N+](C)(C)CCCCCC(=O)*; C18 diacid = O=C(O)CCCCCCCCCCCCCCCCC(=O)*; γGlu = O=C(O)[C@H](CCC(=O)[*:2])N[*:1]; 2Nal = N[C@@H](Cc1ccc2ccccc2c1)C(=O)O; AEF = NCCOc1ccc(C[C@H](N)C(=O)O)cc1; 3Pal = N[C@@H](Cc1cccnc1)C(=O)O; Lys(Me) = CNCCCC[C@H](N)C(=O)O; NMeK = CN[C@@H](CCCCN)C(=O)O; Pen = CC(C)(S)[C@H](N)C(=O)O; Thp = NC1(C(=O)O)CCOCC1; X1 = C[N+](C)(C)CCCCC*; AEEA = NCCOCCOCC(=O)O; Sar = CNCC(=O)O

Assays:
[1] = system: IL-23-stimulated phosphorylated STAT3 in peripheral blood mononuclear cells (PBMCs); experiment: PBMC pSTAT3 Assay; format: cell-based; conditions: PBMCs from healthy donors; 30 min preincubation with peptide; IL-23 5 ng/mL for 30 min; phospho-STAT3 by MSD
Method in brief: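 Healthy-donor PBMCs expanded 4 days on anti-CD3 with 100 ng/mL IL-1β, starved ~4 h in RPMI-0.1% BSA, preincubated 30 min with peptide, then stimulated 30 min at 37 °C with 5 ng/mL IL-23. Lysate pSTAT3 measured by MSD phospho-STAT panel; IC50 derived.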

IL-23R = biological target: T1, IL-23R (Homo sapiens, UniProt Q5VWK5); experiment: IL23R Reporter Assay; format: cell-based; conditions: HEK293 cells containing IL-23R, IL-12Rβ1 and STAT-inducible firefly luciferase reporter; 10 ng/mL IL-23 (EC90); 5 h
T1 construct: HEK293 cells containing IL-23R, IL-12Rβ1 and a firefly luciferase reporter gene driven by a STAT-inducible promoter (Promega); host or cells: HEK293
T1 sequence (Q5VWK5 24-629): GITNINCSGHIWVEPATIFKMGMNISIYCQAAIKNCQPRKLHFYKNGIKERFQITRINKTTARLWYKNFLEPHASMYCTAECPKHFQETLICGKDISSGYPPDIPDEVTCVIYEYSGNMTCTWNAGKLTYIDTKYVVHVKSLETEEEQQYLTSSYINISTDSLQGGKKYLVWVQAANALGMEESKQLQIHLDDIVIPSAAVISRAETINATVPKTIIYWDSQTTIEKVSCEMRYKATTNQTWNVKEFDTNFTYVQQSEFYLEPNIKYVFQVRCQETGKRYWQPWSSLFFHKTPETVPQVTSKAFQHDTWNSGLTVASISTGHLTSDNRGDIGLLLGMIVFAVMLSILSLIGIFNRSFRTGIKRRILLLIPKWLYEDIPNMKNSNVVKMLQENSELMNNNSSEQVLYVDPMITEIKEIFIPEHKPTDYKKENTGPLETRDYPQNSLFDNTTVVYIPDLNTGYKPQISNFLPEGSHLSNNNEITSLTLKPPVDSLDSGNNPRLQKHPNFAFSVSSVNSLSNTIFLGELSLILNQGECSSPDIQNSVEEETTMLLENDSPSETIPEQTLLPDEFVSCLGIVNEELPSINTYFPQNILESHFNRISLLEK
Method in brief: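 HEK293 cells carrying IL-23R, IL-12Rβ1 and a STAT-driven firefly luciferase reporter (4000 cells/well) received compound, then 10 ng/mL IL-23 solution (EC90), and were incubated for 5 h at 37° C. BioGlo luminescence was normalised to IL-23 alone (0%) and 30 μM control inhibitor (100%). IC50 came from a 4-parameter Hill fit.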

| Structure (SMILES) | IC50 (IL-23R) [nM] | IC50 [1] [nM] |
| --- | --- | --- |
| CC(=O)N[C@H](CCCNC(=N)N)C(=O)N[C@@H]1C(=O)N[C@@H](CCCCNC(=O)COCCOCCNC(=O)COCCOCCNC(=O)CC[C@H](NC(=O)CCCCCCCCCCCCCCCCC(=O)O)C(=O)O)C(=O)N[C@@H]([C@@H](C)O)C(=O)N[C@@H](Cc2c[nH]c3c(C)cccc23)C(=O)N[C@@H](CCCCN(C)C(=O)CCOCCOCC[N+](C)(C)C)C(=O)N[C@H](C(=O)N[C@@H](Cc2ccc(OCCN)cc2)C(=O)N[C@@H](Cc2ccc3ccccc3c2)C(=O)NC2(C(=O)N[C@@H](CCC(=O)O)C(=O)N[C@@H](CC(N)=O)C(=O)N[C@@H](Cc3cccnc3)C(=O)N(C)CC(N)=O)CCOCC2)C(C)(C)SSC1(C)C [compound 76, MeCO-r-Pen(3)-K(PEG2PEG2gEC18OH)-T-7MeW-K(NMecPEG3a)-Pen(3)-AEF-2Nal-THP-E-N-3Pya-Sar-CONH2] (Ac-[dR][Pen]K([AEEA-AEEA-γGlu-C18 diacid])T[Trp(7-Me)][Lys(Me)](Me3N+(CH2)2O(CH2)2O(CH2)2CO)[Pen][AEF][2Nal][Thp]EN[3Pal][Sar]-NH2; disulfide 2-7) | < 50 | < 0.5 |
| CC(=O)NCCCC[C@@H]1NC(=O)[C@H](CC2CNc3c(C)cccc32)NC(=O)[C@H]([C@@H](C)O)NC(=O)[C@H](CC(N)=O)NC(=O)[C@@H](NC(=O)CCOCCOCC[N+](C)(C)C)C(C)(C)SSC(C)(C)[C@@H](C(=O)N[C@@H](Cc2ccc(OCCN)cc2)C(=O)N[C@@H](Cc2ccc3ccccc3c2)C(=O)NC2(C(=O)N[C@@H](CCCCNC(=O)COCCOCCNC(=O)COCCOCCNC(=O)CC[C@H](NC(=O)CCCCCCCCCCCCCCCCC(=O)O)C(=O)O)C(=O)N[C@@H](CC(N)=O)C(=O)N[C@@H](Cc3cccnc3)C(=O)N(C)CC(N)=O)CCOCC2)NC1=O (stereo partly drawn) [compound 78, cPEG3aCO-Pen(3)-N-T-7MeW-K(Ac)-Pen(3)-AEF-2Nal-THP-K(PEG2PEG2gEC18OH)-N-3Pya-Sar-CONH2] | 50 to 500 | < 0.5 |
| CC(=O)N[C@H](CCCNC(=N)N)C(=O)N[C@@H]1C(=O)N[C@@H](CC(N)=O)C(=O)N[C@@H]([C@@H](C)O)C(=O)N[C@@H](Cc2c[nH]c3c(C)cccc23)C(=O)N[C@@H](CCCCNC(=O)COCCOCCNC(=O)COCCOCCNC(=O)CC[C@H](NC(=O)CCCCCCCCCCCCCCCCC(=O)O)C(=O)O)C(=O)N[C@H](C(=O)N[C@@H](Cc2ccc(OCCN)cc2)C(=O)N[C@@H](Cc2ccc3ccccc3c2)C(=O)NC2(C(=O)N[C@@H](CCCCN(C)C(=O)CCOCCOCC[N+](C)(C)C)C(=O)N[C@@H](CC(N)=O)C(=O)C[C@@H](Cc3cccnc3)C(=O)N(C)CC(N)=O)CCOCC2)C(C)(C)SSC1(C)C [compound 79, MeCO-r-Pen(3)-N-T-7MeW-K(PEG2PEG2gEC18OH)-Pen(3)-AEF-2Nal-THP-K(NMecPEG3a)-N-3Pya-Sar-CONH2] (Ac-[dR][Pen]NT[Trp(7-Me)]K([AEEA-AEEA-γGlu-C18 diacid])[Pen][AEF][2Nal][Thp][Lys(Me)](Me3N+(CH2)2O(CH2)2O(CH2)2CO)[X21][Sar]-NH2; disulfide 2-7) | 50 to 500 | < 0.5 |
| CC(=O)NCCCC[C@@H]1NC(=O)[C@H](Cc2c[nH]c3c(C)cccc23)NC(=O)[C@H]([C@@H](C)O)NC(=O)[C@H](CC(N)=O)NC(=O)[C@@H](NC(=O)[C@@H](CCCNC(=N)N)NC(=O)COCCOCCNC(=O)COCCOCCNC(=O)CC[C@H](NC(=O)CCCCCCCCCCCCCCCCC(=O)O)C(=O)O)C(C)(C)SSC(C)(C)[C@@H](C(=O)N[C@@H](Cc2ccc(OCCN)cc2)C(=O)N[C@@H](Cc2ccc3ccccc3c2)C(=O)NC2(C(=O)N[C@@H](CCCCN(C)C(=O)CCOCCOCC[N+](C)(C)C)C(=O)N[C@@H](CC(N)=O)C(O)N[C@@H](Cc3cccnc3)C(=O)N(C)CC(N)=O)CCOCC2)NC1=O (stereo partly drawn) [compound 82, HOC18gEPEG2PEG2CO-r-Pen(3)-N-T-7MeW-K(Ac)-Pen(3)-AEF-2Nal-THP-K(NMecPEG3a)-N-3Pya-Sar-CONH2] ({C18 diacid-γGlu-AEEA-AEEA}-[dR][Pen]NT[Trp(7-Me)]K(Ac)[Pen][AEF][2Nal][Thp][Lys(Me)](Me3N+(CH2)2O(CH2)2O(CH2)2CO)-X11; disulfide 2-7) | < 50 | < 0.5 |

The next lines start with results.

| IC50 (IL-23R) [nM] | Structure (SMILES) | IC50 [1] [nM] |
| --- | --- | --- |
| 50 to 500 | CC(=O)N[C@H](CCCNC(=N)N)C(=O)N[C@@H]1C(=O)N[C@@H](CCCCNC(=O)COCCOCCNC(=O)COCCOCCNC(=O)CC[C@H](NC(=O)CCCCCCCCCCCCCCCCC(=O)O)C(=O)O)C(=O)N[C@@H]([C@@H](C)O)C(=O)N[C@@H](Cc2c[nH]c3c(C)cccc23)C(=O)N[C@@H](CCCCN(C)C(=O)CCOCCOCC[N+](C)(C)C)C(=O)N[C@H](C(=O)N[C@@H](Cc2ccc(OCCN)cc2)C(=O)N[C@@H](Cc2ccc3ccccc3c2)C(=O)NC2(C(=O)N[C@@H](CCC(=O)O)C(=O)N[C@@H](CC(N)=O)C(=O)N[C@@H](Cc3cccnc3)C(=O)N(C)CC(N)=O)CCOCC2)C(C)(C)SSC1(C)C [compound 77, 5cpaCO-Pen(3)-N-T-7MeW-K(Ac)-Pen(3)-AEF-2Nal-THP-K(PEG2PEG2gEC18OH)-N-3Pya-Sar-CONH2] (Ac-[dR][Pen]K([AEEA-AEEA-γGlu-C18 diacid])T[Trp(7-Me)][Lys(Me)](Me3N+(CH2)2O(CH2)2O(CH2)2CO)[Pen][AEF][2Nal][Thp]EN[3Pal][Sar]-NH2; disulfide 2-7) | < 0.5 |
| 50 to 500 | CC(=O)NCCCC[C@@H]1NC(=O)[C@H](Cc2c[nH]c3c(C)cccc23)NC(=O)[C@H]([C@@H](C)O)NC(=O)[C@H](CC(N)=O)NC(=O)[C@@H](NC(=O)[C@@H](CCCNC(=N)N)NC(C)=O)C(C)(C)SSC(C)(C)[C@@H](C(=O)N[C@@H](Cc2ccc(OCCN)cc2)C(=O)N[C@@H](Cc2ccc3ccccc3c2)C(=O)NC2(C(=O)N[C@@H](CCC(=O)O)C(=O)N[C@@H](CC(N)=O)C(=O)N[C@@H](Cc3cccnc3)C(=O)N(C)[C@@H](CCCCNC(=O)COCCOCCN(C)C(=O)COCCOCCN(C)C(=O)CC[C@H](C(=O)O)N(C)C(=O)CCCCCCCCCCCCCCCCC(=O)O)C(N)=O)CCOCC2)NC1=O [compound 80, MeCO-r-Pen(3)-N-T-7MeW-K(Ac)-Pen(3)-AEF-2Nal-THP-E-N-3Pya-NMeK(PEG2NMePEG2NMegENMeC18OH)-CONH2] (Ac-[dR][Pen]NT[Trp(7-Me)]K(Ac)[Pen][AEF][2Nal][Thp]EN[3Pal][NMeK](X23)-NH2; disulfide 2-7) | < 0.5 |
| 50 to 500 | CC(=O)NCCCC[C@@H]1NC(=O)[C@H](Cc2c[nH]c3c(C)cccc23)NC(=O)[C@H]([C@@H](C)O)NC(=O)[C@H](CC(N)=O)NC(=O)[C@@H](NC(=O)[C@@H](CCCNC(=N)N)NC(=O)CCCCC[N+](C)(C)C)C(C)(C)SSC(C)(C)[C@@H](C(=O)N[C@@H](Cc2ccc(OCCN)cc2)C(=O)N[C@@H](Cc2ccc3ccccc3c2)C(=O)NC2(C(=O)N[C@@H](CCC(=O)O)C(=O)N[C@@H](CC(N)=O)C(=O)N[C@@H](Cc3cccnc3)C(=O)N(C)CC(=O)N[C@@H](CCCCNC(=O)COCCOCCNC(=O)COCCOCCNC(=O)CC[C@H](NC(=O)CCCCCCCCCCCCCCCCC(=O)O)C(=O)O)C(N)=O)CCOCC2)NC1=O [compound 81, 5cpaCO-r-Pen(3)-N-T-7MeW-K(Ac)-Pen(3)-AEF-2Nal-THP-E-N-3Pya-Sar-K(PEG2PEG2gEC18OH)-CONH2] ({Hexanoyl(6-NMe3+)}-[dR][Pen]NT[Trp(7-Me)]K(Ac)[Pen][AEF][2Nal][Thp]EN[3Pal][Sar]K([AEEA-AEEA-γGlu-C18 diacid])-NH2; disulfide 2-7) | < 0.5 |
| < 50 | CC(=O)NCCCC[C@@H]1NC(=O)[C@H](Cc2c[nH]c3c(C)cccc23)NC(=O)[C@H]([C@@H](C)O)NC(=O)[C@H](CC(N)=O)NC(=O)[C@@H](NC(=O)[C@@H](CCCNC(=N)N)NC(=O)COCCOCCNC(=O)COCCOCCNC(=O)CC[C@H](NC(=O)CCCCCCCCCCCCCCCCC(=O)O)C(=O)O)C(C)(C)SSC(C)(C)[C@@H](C(=O)N[C@@H](Cc2ccc(OCCCCC[N+](C)(C)C)cc2)C(=O)N[C@@H](Cc2ccc3ccccc3c2)C(=O)NC2(C(=O)N[C@@H](CCC(=O)O)C(=O)N[C@@H](CC(N)=O)C(=O)N[C@@H](Cc3cccnc3)C(=O)N(C)CC(N)=O)CCOCC2)NC1=O [compound 83, HOC18gEPEG2PEG2CO-r-Pen(3)-N-T-7MeW-K(Ac)-Pen(3)-TMAPF-2Nal-THP-E-N-3Pya-Sar-CONH2] ({C18 diacid-γGlu-AEEA-AEEA}-[dR][Pen]NT[Trp(7-Me)]K(Ac)[Pen]Y(X1)[2Nal][Thp]EN[3Pal][Sar]-NH2; disulfide 2-7) | < 0.5 |
